Assay results taken from patent US6310247A, “7-aryl-6(Z)-heptatrienoic acid retinamides” (Hoffmann-LA Roche Inc., priority 1999, dated 2001).
Where two headings read alike, the source gives them in different places.

Experiments:
ZR-75-1 cells [1] = assay: Apoptosis: cell death detection by ELISA, ZR-75-1; assay type: cell-based, human; settings: for fold induction at 1 µM / fold induction at 3.3 µM / fold induction at 10 µM: Homo sapiens, read-out: Fold induction of apoptosis compared to no drug control
Description: (§1) ER+ breast carcinoma, human (ZR-75-1) obtained from ATCC (CRL 1500), were grown in Gibco's RPMI 1640 media supplemented with sodium pyruvate, 10% FBS and 13 ng/mL gentamicin. Cells were incubated at 37° C., 4.5% CO2 and 95.5% humidified air.
(§2) 2. Apoptosis: Cell death detection by ELISA:
(§3) Compounds of formula 1 were tested for the ability to cause apoptosis as follows:
(§4) Cells and media were collected, cells were pelleted, resuspended in 100 μl lysis buffer (50 mM Tris-Cl (pH=8.0), 20 mM EDTA, 1% NP-40e) and incubated 30 minutes at 4° C. to lyse. Cell debris was spun down and an aliquot (30 μl) of the […] was removed for protein determination and stored at -20° C. An additional 280 μl of lysis buffer, was added, mixed thoroughly and spun down at 14,000 RPM for 10 minutes at 4° C. An aliquot was removed (180 μl) and the sample was stored at -20° C. until testing.
(§5) A commercially available apoptosis detection kit, obtained from Boehringer Mannheim (Cat. No. 1544-674), was used as per the directions provided with the kit (Cell Death Detection ELISA). However, the protocol was modified in that a 1:40 to 1:100 dilution of sample was prepared, rather than the recommended 1:10 dilution, due to the increase in cell number used to prepare the sample extract and the subsequent increase in ELISA reactivity. The assay measures apoptosis by quantifying the amount of nucleosomal fragmentation from the extracts of cells treated with the test compounds (samples). These nucleosomal fragments, generated by the activation of endonucleases, are a known downstream effector of apoptosis. Antihistone antibodies are used to fix any nucleosomal fragments in the sample to the well of the microtiter plates. The sample is then incubated with anti-DNA antibodies conjugated to peroxidase and subsequently incubated with the peroxidase substrate, ABTS. The resulting colorimetric change is measured spectrophotometrically at 405/490nm.
(§6) The total protein content of each sample was determined for the purpose of normalizing the ELISA values to amount of sample loaded. Microplate assay protocol described in the instruction manual, for (Biorad DC Assay, Cat.#500-0116) section 5.2. The protein concentrations were calculated based upon a linear regression curve.
(§7) d) ELISA assay calculations
(§8) Relative ELISA O.D. readings are determined by subtracting the ELISA plate background O.D. value. No drug control O.D. value (lysis buffer only) was subtracted from sample O.D. value. A correction coefficient (CC), based on the sample protein concentration compared to no drug control, was determined to correct the sample O.D. following subtraction of the background O.D. (BCS O.D.). The fold increase over no drug control is calculated and normalized to the total protein concentration of the samples by multiplying against the correction coefficient.
(§9) To determine the fold increase in ELISA O.D., obtain the following O.D. measurements:
(§10) ELISA plate background--lysis buffer only (EPB);
(§11) no drug treated control--cell sample treated with DMSO (NDT);
(§12) drug treated sample--cell sample treated with a compound of formula 1 (DT) Subtract EPB from NDT (NDT-EPB) and DT (DT-EPB). The fold increase of the treated over the control is then (DT-EPB)/(NDT-EPB).
(§13) To determine the total protein concentration of the samples, obtain the total protein concentration in mg/ul calculated using standard linear regression formula (y=mx+b) based on BSA standards. B=ELISA background. Protein concentration (PC)(mg/ml)=(sample absorbance-b)/x.
(§14) Correction coefficient (cc) is (NDT)(PC)/(DT)(PC).
(§15) Determine fold increase of ELISA (FT) normalized to total PC:
(§16) nDT is DT×cc (which is DT O.D. normalized to PC)
(§17) nNDT is NDT×cc (which is NDT O.D. normalized to PC)
(§18) FI normalized to PC is nDT/nNDT.

MDA-435 cells = assay: Apoptosis: cell death detection by ELISA, MDA-435; assay type: cell-based, human; settings: for fold induction at 1 µM / fold induction at 3.3 µM / fold induction at 10 µM: Homo sapiens, read-out: Fold induction of apoptosis compared to no drug control
Description: ER- breast carcinoma, human (MDA-435) obtained from Dr. Janet Price, MDA Cancer Center, Houston, Tex., were grown in Gibco's RPMI 1640 media supplemented with sodium pyruvate, 10% FBS and 13 ng/mL gentamicin. Cells were incubated at 37° C., 4.5% CO2 and 95.5% humidified air.
as §2, §3, §4, §5, §6, §7, §8, §9, §10, §11, §12, §13, §14, §15, §16, §17, §18

ZR-75-1 cells [2] = assay: Cell growth inhibition: MTT assay, ZR-75-1 (ER+ breast carcinoma); assay type: cell-based; settings: Homo sapiens, read-out: % inhibition of cell growth compared to no drug control
Description: as §1
1. Cell growth inhibition: MTT Assay
The compounds of formula 1 were tested for ability to inhibit cell growth using the standard MTT assay, a tetrazolium-based assay which measures the viability of cells in culture. Cells were harvested upon reaching 70-80% confluency and pelleted. The cells were then resuspended in medium in which FBS was replaced with Hyclone's Charcoal/Dextran stripped FBS, and seeded (2 mL/well) into 6-well plates (Corning) at a density allowing for linear growth over a four day assay period. Compounds of formula 1 (10 mM stock in dimethylsulfoxide (DMSO)) were added 18-24 hours post-seeding. Compound dilutions were prepared in the appropriate growth media and added to the cells for final concentrations of 10, 3.3 and 1 μM in 0.1% DMSO. At 24, 48 and 72 hr. time points, MTT (3-[4,5-dimethylthiazol-2-yl-2,5-diphenyltetrazolium bromide) stock solution (5mg/mL in 1 PBS) was added to the cells plates (625 μL/well) which were then incubated for 2.5 hours. Liquid was aspirated from the wells and 1 mL/well of 95% ethanol was added to solubilize the formazan reaction product. The plates were shaken (Bellco Mini-Orbital Shaker) for 15 minutes. The solubilized formazan was then transferred (50 μls) into a 96-well plate and the optical densities (OD) were measured (Bio-Tek Microplate Reader) at 570 nm and reference wavelength of 660 nm. Percentage of inhibition of cell growth was calculated according to the following formula: [formula]

Structure (SMILES): C/C(=C/C=C/C(C)=C/C(=O)Nc1ccc(O)cc1)c1cc(C(F)(F)F)cc(C(F)(F)F)c1 [N-(4-hydroxyphenyl)-(2E,4E,6Z)-7-[3,5-bis(trifluoromethyl)phenyl]-3,7-dimethyl-2,4,6-heptatrienamide]
- fold induction at 1 µM (ZR-75-1 cells [1]; ZR-75-1, 24 h, 24 hrs): 2
- fold induction at 3.3 µM (ZR-75-1 cells [1]; ZR-75-1, 24 h, 24 hrs): 2
- fold induction at 10 µM (ZR-75-1 cells [1]; ZR-75-1, 24 h, 24 hrs): 3
- fold induction at 1 µM (ZR-75-1 cells [1]; ZR-75-1, 48 h, 48 hrs): 2
- fold induction at 3.3 µM (ZR-75-1 cells [1]; ZR-75-1, 48 h, 48 hrs): 19
- fold induction at 10 µM (ZR-75-1 cells [1]; ZR-75-1, 48 h, 48 hrs): 15
- fold induction at 1 µM (ZR-75-1 cells [1]; ZR-75-1, 72 h, 72 hrs): 2
- fold induction at 3.3 µM (ZR-75-1 cells [1]; ZR-75-1, 72 h, 72 hrs): 69
- fold induction at 10 µM (ZR-75-1 cells [1]; ZR-75-1, 72 h, 72 hrs): 67
- Induction of apoptosis (in words) (ZR-75-1 cells [1]; after 48 hours): induces significant apoptosis
- fold induction at 1 µM (MDA-435 cells; MDA435, 24 h, 24 hrs): 3
- fold induction at 3.3 µM (MDA-435 cells; MDA435, 24 h, 24 hrs): 6
- fold induction at 10 µM (MDA-435 cells; MDA435, 24 h, 24 hrs): 6
- fold induction at 1 µM (MDA-435 cells; MDA435, 48 h, 48 hrs): 3
- fold induction at 3.3 µM (MDA-435 cells; MDA435, 48 h, 48 hrs): 10
- fold induction at 10 µM (MDA-435 cells; MDA435, 48 h, 48 hrs): 16
- fold induction at 1 µM (MDA-435 cells; MDA435, 72 h, 72 hrs): 4
- fold induction at 3.3 µM (MDA-435 cells; MDA435, 72 h, 72 hrs): 12
- fold induction at 10 µM (MDA-435 cells; MDA435, 72 h, 72 hrs): 34
- Induction of apoptosis (in words) (MDA-435 cells; after 24 hours): induces significant apoptosis
- inhibition at 1 µM (ZR-75-1 cells [2]; 24 hours): 1%
- inhibition at 3.3 µM (ZR-75-1 cells [2]; 24 hours): 14%
- inhibition at 10 µM (ZR-75-1 cells [2]; 24 hours): 21%
- inhibition at 1 µM (ZR-75-1 cells [2]; 48 hours): 0%
- inhibition at 3.3 µM (ZR-75-1 cells [2]; 48 hours): 18%
- inhibition at 10 µM (ZR-75-1 cells [2]; 48 hours): 30%
- inhibition at 1 µM (ZR-75-1 cells [2]; 72 hours): 13%
- inhibition at 3.3 µM (ZR-75-1 cells [2]; 72 hours): 56%
- inhibition at 10 µM (ZR-75-1 cells [2]; 72 hours): 64%
